Tests used:
CDK2 = CDK2 (UniProt P24941); assay: Enzyme Assay
EGFR (mouse) = EGFR (mouse) (UniProt P00533); conditions: 3t3

Compound	IC50 (CDK2) [nM]	IC50 (EGFR (mouse)) [µM]
O=C1Nc2ccc(S(=O)(=O)N3CCc4cc(Br)ccc43)cc2/C1=C/c1[nH]cc2c1CCOC2=O	2860	> 20
CNS(=O)(=O)c1ccc2c(c1)/C(=C/c1[nH]cc3c1CCNC3=O)C(=O)N2	9	> 20
O=C1Nc2ccc(C(=O)N3CCCC3)cc2/C1=C/c1[nH]cc2c1CCNC2=O	70	> 20
O=C1Nc2cc(-c3cccnc3)ccc2/C1=C/c1[nH]cc2c1CCOC2=O	5690	> 20
Cc1c(Cl)ccc2c1/C(=C/c1[nH]cc3c1CCOC3=O)C(=O)N2	310	> 20
O=C1Nc2c(Cl)cccc2/C1=C/c1[nH]cc2c1CCOC2=O	2580	> 20
Cc1c(Br)ccc2c1/C(=C/c1[nH]cc3c1CCOC3=O)C(=O)N2	160	> 20
O=C1Nc2cc(-c3ccccc3)ccc2/C1=C/c1[nH]cc2c1CCNC2=O	6010	> 20
O=C1Nc2ccc(Cl)cc2/C1=C/c1[nH]cc2c1CCOC2=O	90	> 20
O=C1Nc2ccc(C(=O)O)cc2/C1=C/c1[nH]cc2c1CCOC2=O	4	> 20
O=C1Nc2ccc(S(=O)(=O)N3CCCc4ccccc43)cc2/C1=C/c1[nH]cc2c1CCOC2=O	550	> 20
O=C1Nc2cc(Br)ccc2/C1=C/c1[nH]cc2c1CCNC2=O	> 10000	> 20
O=C1Nc2cc(-c3ccc(F)cc3)ccc2/C1=C/c1[nH]cc2c1CCOC2=O	1060	> 20
O=C1Nc2cc(F)ccc2/C1=C/c1[nH]cc2c1CCOC2=O	360	> 20
CC(=O)Nc1ccc2c(c1)NC(=O)/C2=C\c1[nH]cc2c1CCOC2=O	7860	> 20
COc1ccc2c(c1)NC(=O)/C2=C\c1[nH]cc2c1CCOC2=O	1550	–
CNS(=O)(=O)c1ccc2c(c1)/C(=C/c1[nH]cc3c1CCOC3=O)C(=O)N2	5	> 20
CN(C)C(=O)c1ccc2c(c1)/C(=C/c1[nH]cc3c1CCNC3=O)C(=O)N2	90	> 20
CNS(=O)(=O)c1ccc2c(c1C)/C(=C/c1[nH]cc3c1CCOC3=O)C(=O)N2	5.5	> 20
O=C1Nc2ccc(S(=O)(=O)N3CCc4ccccc4C3)cc2/C1=C/c1[nH]cc2c1CCOC2=O	730	> 20
O=C1Nc2cc(Cl)ccc2/C1=C/c1[nH]cc2c1CCOC2=O	410	> 20
O=C1Nc2cc(-c3cccc(C(=O)O)c3)ccc2/C1=C/c1[nH]cc2c1CCOC2=O	5360	18.7
O=C1Nc2ccc(Br)cc2/C1=C/c1[nH]cc2c1CCNC2=O	530	> 20
NS(=O)(=O)c1ccc2c(c1)/C(=C/c1[nH]cc3c1CCOC3=O)C(=O)N2	10	> 20
O=C1Nc2ccc3c(c2/C1=C/c1[nH]cc2c1CCOC2=O)CCOS3(=O)=O	130	> 20
O=C1Nc2ccc(Br)cc2/C1=C/c1[nH]cc2c1CCOC2=O	240	> 20

Compound	IC50 (CDK2) [nM]	IC50 (EGFR (mouse)) [µM]
CN(C)S(=O)(=O)c1ccc2c(c1)/C(=C/c1[nH]cc3c1CCOC3=O)C(=O)N2	30	> 20
O=C1Nc2cccc(CCO)c2/C1=C/c1[nH]cc2c1CCNC2=O	450	> 20
O=C1Nc2cccc(CCO)c2/C1=C/c1[nH]cc2c1CCOC2=O	30	> 20
O=C1Nc2cc(-c3ccccc3)ccc2/C1=C/c1[nH]cc2c1CCOC2=O	> 10000	> 20
NS(=O)(=O)c1ccc2c(c1)/C(=C/c1[nH]cc3c1CCNC3=O)C(=O)N2	< 5	> 20
COc1ccc2c(c1)/C(=C/c1[nH]cc3c1CCOC3=O)C(=O)N2	40	> 20
COc1ccc2c(c1)/C(=C/c1[nH]cc3c1CCNC3=O)C(=O)N2	290	> 20
O=C1Nc2cc(Br)ccc2/C1=C/c1[nH]cc2c1CCOC2=O	970	> 20
COc1ccccc1-c1ccc2c(c1)NC(=O)/C2=C\c1[nH]cc2c1CCOC2=O	> 10000	> 20
O=C1Nc2ccc(S(=O)(=O)Nc3cccc(Cl)c3)cc2/C1=C/c1[nH]cc2c1CCOC2=O	490	> 20
O=C1Nc2cc(Cl)ccc2/C1=C/c1[nH]cc2c1CCNC2=O	7230	> 20
CC(C)NS(=O)(=O)c1ccc2c(c1)/C(=C/c1[nH]cc3c1CCOC3=O)C(=O)N2	60	> 20
COc1ccc(-c2ccc3c(c2)NC(=O)/C3=C\c2[nH]cc3c2CCOC3=O)cc1	1000	> 20
O=C1Nc2ccc(-c3ccccc3)cc2/C1=C/c1[nH]cc2c1CCNC2=O	3200	> 20
O=C1Nc2ccc(-c3cccc(C(=O)O)c3)cc2/C1=C/c1[nH]cc2c1CCOC2=O	6710	> 20
O=C1Nc2ccc(S(=O)(=O)N3CCc4ccccc43)cc2/C1=C/c1[nH]cc2c1CCOC2=O	350	> 20
CN(C)S(=O)(=O)c1ccc2c(c1)/C(=C/c1[nH]cc3c1CCNC3=O)C(=O)N2	100	> 20
CN(c1cccc(Cl)c1)S(=O)(=O)c1ccc2c(c1)/C(=C/c1[nH]cc3c1CCOC3=O)C(=O)N2	9950	> 20
O=C1Nc2ccc(F)cc2/C1=C/c1[nH]cc2c1CCNC2=O	300	> 20
O=C1Nc2ccc(C(=O)N3CCOCC3)cc2/C1=C/c1[nH]cc2c1CCNC2=O	560	> 20
COc1cccc(-c2ccc3c(c2)NC(=O)/C3=C\c2[nH]cc3c2CCOC3=O)c1	> 10000	> 20
O=C1Nc2ccc(F)cc2/C1=C/c1[nH]cc2c1CCOC2=O	80	> 20
O=C1Nc2ccc(S(=O)(=O)Nc3ccccc3)cc2/C1=C/c1[nH]cc2c1CCOC2=O	40	> 20
Cc1cccc2c1/C(=C/c1[nH]cc3c1CCOC3=O)C(=O)N2	270	> 20
O=C1Nc2cc(C(=O)O)ccc2/C1=C/c1[nH]cc2c1CCOC2=O	1080	> 20
O=C1Nc2ccc(-c3ccccc3)cc2/C1=C/c1[nH]cc2c1CCOC2=O	3840	> 20

Source: the Kinase Knowledgebase extract (Sharma et al. 2016)
